Test results published in patent US20090192176A1, “1H-PYRAZOLO[3,4-D]PYRIMIDINE, PURINE, 7H-PURIN-8(9H)-ONE, 3H-[1,2,3]TRIAZOLO[4,5-D]PYRIMIDINE, AND THIENO[3,2-D]PYRIMIDINE COMPOUNDS, THEIR USE AS mTOR KINASE AND PI3 KINASE INHIBITORS, AND THEIR SYNTHESES” (Wyeth, priority 2008, published 2009).

Legend:
MDA468 = test: In vitro cell culture growth assay (MTS); type: cell-based; conditions: Homo sapiens, 72 h, breast line MDA468, three days after drug treatment
Description: In Vitro Cell Culture Growth Assay Methods:
Human tumor cell lines used include prostate lines LNCap and PC3MM2, breast lines MDA468, MCF7, renal line HTB44 (A498), colon line HCT116, and ovarian line OVCAR3. Cells were plated in 96-well culture plates. One day following plating, the inhibitors were added to cells. Three days after drug treatment, viable cell densities were determined by metabolic conversion (by viable cells) of the dye MTS, a well-established cell proliferation assay. The assays were performed using an assay kit purchased from Promega Corp. (Madison, Wis.) following the protocol supplied with the kit. The MTS assay results were read in a 96-well plate reader by measuring absorbance at 490 nm. The effect of each treatment was calculated as percent of control growth relative to the vehicle-treated cells grown in the same culture plate. The drug concentration that conferred 50% inhibition of growth was determined as IC50 (μg/ml).

LNCap = test: In vitro cell culture growth assay (MTS); type: cell-based; conditions: Homo sapiens, 72 h, prostate line LNCap, three days after drug treatment
Human mTOR = target: T1, Human mTOR (Homo sapiens, UniProt P42345); test: mTOR kinase assay (DELFIA format, purified enzyme); type: biochemical; conditions: His6-S6K substrate, read-out: TOR Kinase IC50
T1 construct: FLAG
Description: mTOR Kinase Assay Methods
Human mTOR assays (See Toral-Barza, et al. Biochem Biophys. Res. Commun. 2005 Jun. 24; 332(1):304-10) with purified enzyme are performed in 96-well plates by DELFIA format as follows. Enzymes are first diluted in kinase assay buffer (10 mM HEPES (pH 7.4), 50 mM NaCl, 50 mM β-glycerophosphate, 10 mM MnCl2, 0.5 mM DTT, 0.25 mM microcystin LR, and […]). To each well, 12 μL of the diluted enzyme is mixed briefly with 0.5 μL test inhibitor or control vehicle dimethylsulfoxide (DMSO). The kinase reaction is initiated by adding 12.5 μL kinase assay buffer containing ATP and His6-S6K to give a final reaction volume of 25 μL containing 800 ng/mL FLAG-TOR, […] and […]. The reaction plate is incubated for 2 hours (linear at 1-6 hours) at room temperature with gentle shaking and then terminated by adding 25 μL Stop buffer (20 mM HEPES (pH 7.4), 20 mM EDTA, 20 mM EGTA). The DELFIA detection of the phosphorylated (Thr-389) His6-S6K is performed at room temperature using a monoclonal anti-P(T389)-p70S6K antibody (1A5, Cell Signaling) labeled with Europium-N1-ITC (Eu) (10.4 Eu per antibody, PerkinElmer). The DELFIA Assay buffer and Enhancement solution can be purchased from PerkinElmer. 45 μL of the terminated kinase reaction mixture is transferred to a MaxiSorp plate (Nunc) containing 55 μL PBS. The His6-S6K is allowed to attach for 2 hours after which the wells are aspirated and washed once with PBS. 100 μL of DELFIA Assay buffer with 40 ng/mL Eu-P(T389)-S6K antibody is added. The antibody binding is continued for 1 hour with gentle agitation. The wells are then aspirated and washed 4 times with PBS containing 0.05% Tween-20 (PBST). 100 μL of DELFIA Enhancement solution is added to each well and the plates are read in a PerkinElmer Victor model plate reader. Data obtained is used to calculate enzymatic activity and enzyme inhibition by potential inhibitors.

PI3 Kinase α = PI3 Kinase α (Homo sapiens, UniProt P42336); test: Fluorescence polarization assay for PI3K; type: biochemical
Description: (§1) Fluorescence Polarization Assay for PI3K
(§2) This assay is used to determine the IC50 of compounds of the present invention as it identifies inhibitors of PI3 kinase by measuring inhibition.
(§3) Reaction Buffer: 20 mM HEPES, pH 7.5, 2 mM MgCl2, 0.05% CHAPS; and 0.01% BME (added fresh) Stop/Detection Buffer: 100 mM HEPES, pH 7.5, 4 mM EDTA, 0.05% CHAPS; ATP 20 mM in water; PIP2 (diC8, cat# P-4508) 1 mM in water (MW=856.5); GST-GRP 1.75 mg/mL or 1.4 mg/mL in 10% glycerol; Red detector (TAMRA) 2.5 μM; Plate: Nunc 384 well black polypropylene fluorescence plate.
(§4) The assay is run by placing 5 μL of diluted enzyme per well, then 5 μL of diluted compound (or 9.5 μL enzyme then 0.5 μL compound in DMSO) is added and mixed. Then, 10 μL substrate is added to start the reaction. The samples are incubated 30-60 minutes, then the reaction is stopped by adding 20 μL stop/detector mix. PI3K is diluted with reaction buffer (e.g., 5 μL or 7.5 μL PI3K into 620 μL reaction buffer), and 5 μL of diluted enzyme is used per well. 5 μL reaction buffer or drug diluted in buffer (e.g., 4 μL/100 so final DMSO is 1% in reaction) is added to each. Pipetting up and down mixes the samples. Alternatively, the enzyme can be diluted to 1215 μL. In this case 9.8 μL is added per well and 0.2 μL compound is added in DMSO. To prepare 1 mL of substrate solution, 955 μL reaction buffer, 40 μL PIP2, and 2.5 μL ATP are mixed. 10 μL of substrate is added to each well to start the reaction.
(§5) Stop/detector mix is prepared by mixing 4 μL Red detector and 1.6 μL or 2.0 μL GST-GRP with 1 mL Stop buffer, which results in 10 nM probe and 70 nM GST-GRP). 20 μL of the stop/detector mix is added to each well to stop the reaction. The plates are read after 30-90 minutes keeping the red probe solutions dark. For the zero time point, stop/detector mix is added to the enzyme just before adding substrate. For an extra control, stop/detector mix is added to buffer (no enzyme) and substrate or to just buffer (no substrate). […] The recommended reaction has 0.06 μL per 20 μL (0.015 μg/20 μL) or 0.01125 μg/15 μL or 0.75 μg/mL. Plates are read on machines with filters for Tamra. The units are mP with no enzyme controls reading app 190-220 mP units. Fully active enzyme reduces fluorescence polarization down to 70-100 mP after 30 minutes. An active compound raises the mP values halfway to control or to 120-150 mP units.

PI3 Kinase γ = PI3 Kinase γ (Homo sapiens, UniProt P48736); test: Fluorescence polarization assay for PI3K; type: biochemical
Description: as §1, §2, §3, §4, §5

PI3 Kinase α, sequence (P42336 whole entry): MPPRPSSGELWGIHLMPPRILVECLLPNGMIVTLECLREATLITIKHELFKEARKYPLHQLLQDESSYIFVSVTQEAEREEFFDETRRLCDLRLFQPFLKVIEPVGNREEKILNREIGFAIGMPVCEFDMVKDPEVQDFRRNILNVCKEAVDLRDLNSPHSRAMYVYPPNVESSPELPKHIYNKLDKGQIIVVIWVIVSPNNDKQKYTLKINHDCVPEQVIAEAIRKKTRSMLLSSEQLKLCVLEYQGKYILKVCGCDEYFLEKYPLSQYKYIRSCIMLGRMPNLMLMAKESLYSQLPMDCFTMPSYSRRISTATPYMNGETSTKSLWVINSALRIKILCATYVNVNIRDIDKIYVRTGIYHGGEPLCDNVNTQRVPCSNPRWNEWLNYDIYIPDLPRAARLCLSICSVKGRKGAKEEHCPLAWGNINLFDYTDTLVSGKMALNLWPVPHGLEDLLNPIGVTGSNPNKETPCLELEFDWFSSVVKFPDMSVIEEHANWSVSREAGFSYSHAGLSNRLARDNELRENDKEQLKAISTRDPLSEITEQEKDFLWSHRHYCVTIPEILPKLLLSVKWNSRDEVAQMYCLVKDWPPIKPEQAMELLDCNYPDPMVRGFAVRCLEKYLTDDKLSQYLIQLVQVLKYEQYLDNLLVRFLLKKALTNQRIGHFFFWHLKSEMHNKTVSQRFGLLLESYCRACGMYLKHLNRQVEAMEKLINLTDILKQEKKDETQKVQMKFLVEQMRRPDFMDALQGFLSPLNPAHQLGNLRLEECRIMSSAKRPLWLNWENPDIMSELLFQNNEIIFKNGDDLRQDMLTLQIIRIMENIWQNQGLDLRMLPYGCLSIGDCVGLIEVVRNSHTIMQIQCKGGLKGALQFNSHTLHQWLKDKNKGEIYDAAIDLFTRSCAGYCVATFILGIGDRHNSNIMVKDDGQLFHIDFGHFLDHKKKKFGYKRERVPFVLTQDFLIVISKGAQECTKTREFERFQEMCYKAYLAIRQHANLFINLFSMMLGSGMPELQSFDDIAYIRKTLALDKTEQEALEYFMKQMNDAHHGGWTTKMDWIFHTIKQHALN
PI3 Kinase α, sequence (P27986 whole entry partner): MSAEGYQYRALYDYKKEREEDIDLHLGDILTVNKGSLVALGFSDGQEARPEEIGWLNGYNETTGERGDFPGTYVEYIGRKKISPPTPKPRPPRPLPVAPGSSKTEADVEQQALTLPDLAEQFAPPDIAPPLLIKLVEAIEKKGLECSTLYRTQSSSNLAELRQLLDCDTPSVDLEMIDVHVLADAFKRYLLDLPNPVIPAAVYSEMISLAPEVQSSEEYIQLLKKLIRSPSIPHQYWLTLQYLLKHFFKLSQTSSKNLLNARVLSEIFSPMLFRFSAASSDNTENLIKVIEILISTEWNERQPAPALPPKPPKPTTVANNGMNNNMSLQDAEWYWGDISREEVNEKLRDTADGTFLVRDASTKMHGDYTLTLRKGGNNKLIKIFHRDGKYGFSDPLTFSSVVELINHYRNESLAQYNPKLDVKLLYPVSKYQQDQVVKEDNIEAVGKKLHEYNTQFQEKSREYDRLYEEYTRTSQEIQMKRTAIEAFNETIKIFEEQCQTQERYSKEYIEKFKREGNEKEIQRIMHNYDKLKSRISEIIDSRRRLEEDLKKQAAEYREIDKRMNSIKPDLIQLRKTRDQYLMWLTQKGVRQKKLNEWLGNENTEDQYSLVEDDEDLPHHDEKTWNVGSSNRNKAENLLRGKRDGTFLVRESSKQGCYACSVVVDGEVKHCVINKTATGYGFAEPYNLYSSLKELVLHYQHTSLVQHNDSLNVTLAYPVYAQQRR
PI3 Kinase γ, sequence (P48736 whole entry): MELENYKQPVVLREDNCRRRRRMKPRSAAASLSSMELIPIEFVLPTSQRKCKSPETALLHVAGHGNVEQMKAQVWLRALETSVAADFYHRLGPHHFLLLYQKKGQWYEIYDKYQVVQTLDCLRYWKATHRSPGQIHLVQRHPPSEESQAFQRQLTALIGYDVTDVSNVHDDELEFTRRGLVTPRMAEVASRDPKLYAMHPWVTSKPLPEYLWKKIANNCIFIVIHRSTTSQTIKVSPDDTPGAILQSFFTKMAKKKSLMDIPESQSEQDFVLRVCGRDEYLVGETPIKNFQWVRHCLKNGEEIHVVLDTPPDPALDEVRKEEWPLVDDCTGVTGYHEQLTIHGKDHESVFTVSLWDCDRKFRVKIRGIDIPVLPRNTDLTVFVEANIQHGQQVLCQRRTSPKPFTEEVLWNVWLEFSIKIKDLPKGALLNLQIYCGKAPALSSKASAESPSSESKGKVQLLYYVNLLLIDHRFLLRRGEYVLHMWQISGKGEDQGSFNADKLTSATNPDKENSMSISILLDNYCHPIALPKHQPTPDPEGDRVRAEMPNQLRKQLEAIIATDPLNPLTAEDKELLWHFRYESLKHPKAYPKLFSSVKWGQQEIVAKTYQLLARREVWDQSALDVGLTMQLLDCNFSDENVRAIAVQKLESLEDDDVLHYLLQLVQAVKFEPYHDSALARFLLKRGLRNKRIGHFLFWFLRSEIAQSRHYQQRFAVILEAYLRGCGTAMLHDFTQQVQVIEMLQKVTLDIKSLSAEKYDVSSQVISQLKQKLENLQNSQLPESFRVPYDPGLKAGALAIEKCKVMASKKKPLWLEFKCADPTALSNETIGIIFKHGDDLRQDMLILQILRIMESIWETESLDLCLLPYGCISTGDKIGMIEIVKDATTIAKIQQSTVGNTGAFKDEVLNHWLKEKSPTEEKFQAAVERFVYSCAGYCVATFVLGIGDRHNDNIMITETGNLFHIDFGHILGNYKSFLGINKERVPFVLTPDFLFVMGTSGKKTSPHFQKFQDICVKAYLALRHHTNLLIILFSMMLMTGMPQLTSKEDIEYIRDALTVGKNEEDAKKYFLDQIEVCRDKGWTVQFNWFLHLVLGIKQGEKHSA

Structure (SMILES): CNC(=O)Nc1ccc(-c2nc(C3=CCOCC3)c3cnn(C4CCN(C(=O)c5cccnc5)CC4)c3n2)cc1 [Compound 5, 1-(4-{4-(3,6-dihydro-2H-pyran-4-yl)-1-[1-(pyridin-3-ylcarbonyl)piperidin-4-yl]-1H-pyrazolo[3,4-d]pyrimidin-6-yl}phenyl)-3-methylurea]
- IC50 (MDA468): 4000 nM
- IC50 (LNCap): 2800 nM
- IC50 (Human mTOR): 8.4 nM
- IC50 (PI3 Kinase α): 2100 nM
- IC50 (PI3 Kinase γ): 1180 nM

Structure (SMILES): O=C(Nc1ccc(-c2nc(C3=CCOCC3)c3cnn(CC(F)(F)F)c3n2)cc1)Nc1cccnc1 [Compound 8, 1-{4-[4-(3,6-dihydro-2H-pyran-4-yl)-1-(2,2,2-trifluoroethyl)-1H-pyrazolo[3,4-d]pyrimidin-6-yl]phenyl}-3-pyridin-3-ylurea]
- IC50 (MDA468): 7000 nM
- IC50 (LNCap): 380 nM
- IC50 (Human mTOR): 0.75 nM
- IC50 (PI3 Kinase α): 66 nM
- IC50 (PI3 Kinase γ): > 10000 nM

Structure (SMILES): CCNC(=O)Nc1ccc(-c2nc(C3=CCOCC3)c3cnn(CC(F)(F)F)c3n2)cc1 [Compound 10, 1-{4-[4-(3,6-dihydro-2H-pyran-4-yl)-1-(2,2,2-trifluoroethyl)-1H-pyrazolo[3,4-d]pyrimidin-6-yl]phenyl}-3-ethylurea]
- IC50 (MDA468): 680 nM
- IC50 (LNCap): 210 nM
- IC50 (Human mTOR): 2.4 nM
- IC50 (PI3 Kinase α): 851 nM
- IC50 (PI3 Kinase γ): > 10000 nM

Structure (SMILES): Oc1cccc(-c2nc(C3=CCOCC3)c3cnn(-c4ccccc4)c3n2)c1 [Compound 1, 3-[4-(3,6-dihydro-2H-pyran-4-yl)-1-phenyl-1H-pyrazolo[3,4-d]pyrimidin-6-yl]phenol]
- IC50 (MDA468): 8250 nM
- IC50 (LNCap): 2800 nM
- IC50 (Human mTOR): 17 nM
- IC50 (PI3 Kinase α): 48 nM
- IC50 (PI3 Kinase γ): 1890 nM

Structure (SMILES): O=c1[nH]c2nc(-c3cccc(O)c3)nc(C3=CCOCC3)c2[nH]1 [Compound 67, 6-(3,6-dihydro-2H-pyran-4-yl)-2-(3-hydroxyphenyl)-7,9-dihydro-8H-purin-8-one]
- IC50 (MDA468): > 10000 nM
- IC50 (Human mTOR): 280 nM
- IC50 (PI3 Kinase α): 169 nM
- IC50 (PI3 Kinase γ): 414 nM

Structure (SMILES): O=C(Nc1ccccc1)Nc1ccc(-c2nc(C3=CCOCC3)c3cnn(CC(F)(F)F)c3n2)cc1 [Compound 9, 1-{4-[4-(3,6-dihydro-2H-pyran-4-yl)-1-(2,2,2-trifluoroethyl)-1H-pyrazolo[3,4-d]pyrimidin-6-yl]phenyl}-3-phenylurea]
- IC50 (MDA468): 230 nM
- IC50 (LNCap): 96 nM
- IC50 (Human mTOR): 2.6 nM
- IC50 (PI3 Kinase α): 43 nM
- IC50 (PI3 Kinase γ): 74 nM

Structure (SMILES): CC(=O)Nc1ccc(-c2nc(C3=CCOCC3)c3cnn(C4CCN(Cc5ccccc5)CC4)c3n2)cc1 [Compound 3, N-{4-[1-(1-benzylpiperidin-4-yl)-4-(3,6-dihydro-2H-pyran-4-yl)-1H-pyrazolo[3,4-d]pyrimidin-6-yl]phenyl}acetamide]
- IC50 (MDA468): 11000 nM
- IC50 (LNCap): 5000 nM
- IC50 (Human mTOR): 230 nM
- IC50 (PI3 Kinase α): 3090 nM
- IC50 (PI3 Kinase γ): 3020 nM

Structure (SMILES): CNC(=O)Nc1ccc(-c2nc(C3=CCOCC3)c3cnn(CC(F)(F)F)c3n2)cc1 [Compound 6, 1-{4-[4-(3,6-dihydro-2H-pyran-4-yl)-1-(2,2,2-trifluoroethyl)-1H-pyrazolo[3,4-d]pyrimidin-6-yl]phenyl}-3-methylurea]
- IC50 (MDA468): 950 nM
- IC50 (LNCap): 260 nM
- IC50 (Human mTOR): 2.4 nM
- IC50 (PI3 Kinase α): 212 nM
- IC50 (PI3 Kinase γ): 3030 nM

Structure (SMILES): Oc1cccc(-c2nc(C3CCOCC3)c3cnn(-c4ccccc4)c3n2)c1 [Compound 2, 3-[1-phenyl-4-(tetrahydro-2H-pyran-4-yl)-1H-pyrazolo[3,4-d]pyrimidin-6-yl]phenol]
- IC50 (MDA468): 50000 nM
- IC50 (LNCap): 11000 nM
- IC50 (Human mTOR): 670 nM
- IC50 (PI3 Kinase α): 855 nM
- IC50 (PI3 Kinase γ): > 10000 nM

Structure (SMILES): Oc1cncc(-c2nc(C3=CCOCC3)c3ncn(C4CCN(Cc5ccccc5)CC4)c3n2)c1 [Compound 28, 5-[9-(1-benzylpiperidin-4-yl)-6-(3,6-dihydro-2H-pyran-4-yl)-9H-purin-2-yl]pyridin-3-ol]
- IC50 (Human mTOR): 3600 nM
- IC50 (PI3 Kinase α): 384 nM
- IC50 (PI3 Kinase γ): 2400 nM

Structure (SMILES): Nc1ncccc1CN1CCC(n2cnc3c(C4=CCOCC4)nc(-c4cncc(O)c4)nc32)CC1 [Compound 34, 5-[9-{1-[(2-aminopyridin-3-yl)methyl]piperidin-4-yl}-6-(3,6-dihydro-2H-pyran-4-yl)-9H-purin-2-yl]pyridin-3-ol]
- IC50 (Human mTOR): 13000 nM
- IC50 (PI3 Kinase α): 526 nM
- IC50 (PI3 Kinase γ): 1500 nM

Structure (SMILES): CN1CCC(n2cnc3c(C4=CCOCC4)nc(-c4cccc(O)c4)nc32)CC1 [Compound 16, 3-[6-(3,6-dihydro-2H-pyran-4-yl)-9-(1-methylpiperidin-4-yl)-9H-purin-2-yl]phenol]
- IC50 (Human mTOR): 2300 nM
- IC50 (PI3 Kinase α): 1630 nM
- IC50 (PI3 Kinase γ): 3200 nM

Structure (SMILES): Cc1ccc(CN2CCC(n3cnc4c(C5=CCOCC5)nc(-c5cccc(O)c5)nc43)CC2)cc1 [Compound 18, 3-{6-(3,6-dihydro-2H-pyran-4-yl)-9-[1-(4-methylbenzyl)piperidin-4-yl]-9H-purin-2-yl}phenol]
- IC50 (Human mTOR): 2100 nM
- IC50 (PI3 Kinase α): 12000 nM
- IC50 (PI3 Kinase γ): 12000 nM

Structure (SMILES): Oc1cncc(-c2nc(C3=CCOCC3)c3ncn(C4CCN(Cc5cccnc5)CC4)c3n2)c1 [Compound 29, 5-{6-(3,6-dihydro-2H-pyran-4-yl)-9-[1-(pyridin-3-ylmethyl)piperidin-4-yl]-9H-purin-2-yl}pyridin-3-ol]
- IC50 (Human mTOR): 2400 nM
- IC50 (PI3 Kinase α): 525 nM
- IC50 (PI3 Kinase γ): 2490 nM

Structure (SMILES): O=C(Nc1ccc(-c2nc(C3=CCOCC3)c3ncn(C4CCN(Cc5ccc[nH]5)CC4)c3n2)cc1)NC1CCN(C(=O)OCc2ccccc2)CC1 [Compound 27, benzyl 4-{[(4-{6-(3,6-dihydro-2H-pyran-4-yl)-9-[1-(1H-pyrrol-2-ylmethyl)piperidin-4-yl]-9H-purin-2-yl}phenyl)carbamoyl]amino}piperidine-1-carboxylate]
- IC50 (Human mTOR): > 4000 nM
- IC50 (PI3 Kinase α): 3030 nM
- IC50 (PI3 Kinase γ): 1080 nM

Structure (SMILES): O=c1[nH]c2nc(-c3cccc(CO)c3)nc(C3=CCOCC3)c2[nH]1 [Compound 39, 6-(3,6-dihydro-2H-pyran-4-yl)-2-[3-(hydroxymethyl)phenyl]-7,9-dihydro-8H-purin-8-one]
- IC50 (Human mTOR): 1300 nM
- IC50 (PI3 Kinase α): 524 nM
- IC50 (PI3 Kinase γ): 819 nM
